Details: Liquid, Vibrating tube method

c1ccsc1 [thiophene]
Details | mass density [kg/m3]
283.15 K, 100 kPa | 1076.4
283.15 K, 2000 kPa | 1077.94
283.15 K, 5000 kPa | 1080.27
283.15 K, 7000 kPa | 1081.81
283.15 K, 10000 kPa | 1084.09
283.15 K, 15000 kPa | 1087.78
283.15 K, 20000 kPa | 1091.37
283.15 K, 25000 kPa | 1094.82
283.15 K, 30000 kPa | 1098.18
283.15 K, 35000 kPa | 1101.44
283.15 K, 40000 kPa | 1104.61
283.15 K, 45000 kPa | 1107.7
283.15 K, 50000 kPa | 1110.71
283.15 K, 55000 kPa | 1113.62
283.15 K, 60000 kPa | 1116.47
283.15 K, 65000 kPa | 1119.27
288.15 K, 100 kPa | 1070.54
288.15 K, 2000 kPa | 1072.11
288.15 K, 5000 kPa | 1074.53
288.15 K, 7000 kPa | 1076.12
288.15 K, 10000 kPa | 1078.46
288.15 K, 15000 kPa | 1082.24
288.15 K, 20000 kPa | 1085.9
288.15 K, 25000 kPa | 1089.45
288.15 K, 30000 kPa | 1092.91
288.15 K, 35000 kPa | 1096.24
288.15 K, 40000 kPa | 1099.5
288.15 K, 45000 kPa | 1102.65
288.15 K, 50000 kPa | 1105.72
288.15 K, 55000 kPa | 1108.7
288.15 K, 60000 kPa | 1111.61
288.15 K, 65000 kPa | 1114.44
293.15 K, 100 kPa | 1064.59
293.15 K, 2000 kPa | 1066.21
293.15 K, 5000 kPa | 1068.67
293.15 K, 7000 kPa | 1070.33
293.15 K, 10000 kPa | 1072.75
293.15 K, 15000 kPa | 1076.63
293.15 K, 20000 kPa | 1080.39
293.15 K, 25000 kPa | 1084.05
293.15 K, 30000 kPa | 1087.58
293.15 K, 35000 kPa | 1091.01
293.15 K, 40000 kPa | 1094.34
293.15 K, 45000 kPa | 1097.57
293.15 K, 50000 kPa | 1100.7
293.15 K, 55000 kPa | 1103.77
293.15 K, 60000 kPa | 1106.72
293.15 K, 65000 kPa | 1109.63
298.15 K, 100 kPa | 1058.65
298.15 K, 2000 kPa | 1060.32
298.15 K, 5000 kPa | 1062.91
298.15 K, 7000 kPa | 1064.57
298.15 K, 10000 kPa | 1067.05
298.15 K, 15000 kPa | 1071.07
298.15 K, 20000 kPa | 1074.94
298.15 K, 25000 kPa | 1078.69
298.15 K, 30000 kPa | 1082.3
298.15 K, 35000 kPa | 1085.81
298.15 K, 40000 kPa | 1089.21
298.15 K, 45000 kPa | 1092.53
298.15 K, 50000 kPa | 1095.73
298.15 K, 55000 kPa | 1098.86
298.15 K, 60000 kPa | 1101.89
298.15 K, 65000 kPa | 1104.85
303.15 K, 100 kPa | 1052.71
303.15 K, 2000 kPa | 1054.43
303.15 K, 5000 kPa | 1057.07
303.15 K, 7000 kPa | 1058.82
303.15 K, 10000 kPa | 1061.36
303.15 K, 15000 kPa | 1065.48
303.15 K, 20000 kPa | 1069.46
303.15 K, 25000 kPa | 1073.3
303.15 K, 30000 kPa | 1077.03
303.15 K, 35000 kPa | 1080.62
303.15 K, 40000 kPa | 1084.1
303.15 K, 45000 kPa | 1087.49
303.15 K, 50000 kPa | 1090.79
303.15 K, 55000 kPa | 1093.96
303.15 K, 60000 kPa | 1097.06
303.15 K, 65000 kPa | 1100.09
308.15 K, 100 kPa | 1046.7
308.15 K, 2000 kPa | 1048.48
308.15 K, 5000 kPa | 1051.21
308.15 K, 7000 kPa | 1052.99
308.15 K, 10000 kPa | 1055.61
308.15 K, 15000 kPa | 1059.87
308.15 K, 20000 kPa | 1063.97
308.15 K, 25000 kPa | 1067.92
308.15 K, 30000 kPa | 1071.73
308.15 K, 35000 kPa | 1075.4
308.15 K, 40000 kPa | 1078.99
308.15 K, 45000 kPa | 1082.45
308.15 K, 50000 kPa | 1085.8
308.15 K, 55000 kPa | 1089.07
308.15 K, 60000 kPa | 1092.23
308.15 K, 65000 kPa | 1095.31
313.15 K, 100 kPa | 1040.68
313.15 K, 2000 kPa | 1042.52
313.15 K, 5000 kPa | 1045.35
313.15 K, 7000 kPa | 1047.19
313.15 K, 10000 kPa | 1049.91
313.15 K, 15000 kPa | 1054.25
313.15 K, 20000 kPa | 1058.47
313.15 K, 25000 kPa | 1062.52
313.15 K, 30000 kPa | 1066.43
313.15 K, 35000 kPa | 1070.21
313.15 K, 40000 kPa | 1073.88
313.15 K, 45000 kPa | 1077.41
313.15 K, 50000 kPa | 1080.86
313.15 K, 55000 kPa | 1084.2
313.15 K, 60000 kPa | 1087.42
313.15 K, 65000 kPa | 1090.59
318.15 K, 100 kPa | 1034.64
318.15 K, 2000 kPa | 1036.54
318.15 K, 5000 kPa | 1039.44
318.15 K, 7000 kPa | 1041.36
318.15 K, 10000 kPa | 1044.15
318.15 K, 15000 kPa | 1048.65
318.15 K, 20000 kPa | 1052.97
318.15 K, 25000 kPa | 1057.12
318.15 K, 30000 kPa | 1061.15
318.15 K, 35000 kPa | 1065.02
318.15 K, 40000 kPa | 1068.77
318.15 K, 45000 kPa | 1072.41
318.15 K, 50000 kPa | 1075.92
318.15 K, 55000 kPa | 1079.33
318.15 K, 60000 kPa | 1082.65
318.15 K, 65000 kPa | 1085.87
323.15 K, 100 kPa | 1028.59
323.15 K, 2000 kPa | 1030.52
323.15 K, 5000 kPa | 1033.54
323.15 K, 7000 kPa | 1035.52
323.15 K, 10000 kPa | 1038.37
323.15 K, 15000 kPa | 1042.99
323.15 K, 20000 kPa | 1047.45
323.15 K, 25000 kPa | 1051.73
323.15 K, 30000 kPa | 1055.85
323.15 K, 35000 kPa | 1059.82
323.15 K, 40000 kPa | 1063.67
323.15 K, 45000 kPa | 1067.38
323.15 K, 50000 kPa | 1070.98
323.15 K, 55000 kPa | 1074.48
323.15 K, 60000 kPa | 1077.86
323.15 K, 65000 kPa | 1081.13
328.15 K, 100 kPa | 1022.43
328.15 K, 2000 kPa | 1024.49
328.15 K, 5000 kPa | 1027.57
328.15 K, 7000 kPa | 1029.6
328.15 K, 10000 kPa | 1032.58
328.15 K, 15000 kPa | 1037.33
328.15 K, 20000 kPa | 1041.91
328.15 K, 25000 kPa | 1046.31
328.15 K, 30000 kPa | 1050.54
328.15 K, 35000 kPa | 1054.61
328.15 K, 40000 kPa | 1058.55
328.15 K, 45000 kPa | 1062.36
328.15 K, 50000 kPa | 1066.05
328.15 K, 55000 kPa | 1069.6
328.15 K, 60000 kPa | 1073.07
328.15 K, 65000 kPa | 1076.42
333.15 K, 100 kPa | 1016.27
333.15 K, 2000 kPa | 1018.35
333.15 K, 5000 kPa | 1021.56
333.15 K, 7000 kPa | 1023.65
333.15 K, 10000 kPa | 1026.72
333.15 K, 15000 kPa | 1031.63
333.15 K, 20000 kPa | 1036.34
333.15 K, 25000 kPa | 1040.87
333.15 K, 30000 kPa | 1045.21
333.15 K, 35000 kPa | 1049.39
333.15 K, 40000 kPa | 1053.43
333.15 K, 45000 kPa | 1057.32
333.15 K, 50000 kPa | 1061.09
333.15 K, 55000 kPa | 1064.72
333.15 K, 60000 kPa | 1068.26
333.15 K, 65000 kPa | 1071.7
338.15 K, 100 kPa | 1010.08
338.15 K, 2000 kPa | 1012.22
338.15 K, 5000 kPa | 1015.53
338.15 K, 7000 kPa | 1017.69
338.15 K, 10000 kPa | 1020.86
338.15 K, 15000 kPa | 1025.92
338.15 K, 20000 kPa | 1030.78
338.15 K, 25000 kPa | 1035.41
338.15 K, 30000 kPa | 1039.88
338.15 K, 35000 kPa | 1044.17
338.15 K, 40000 kPa | 1048.31
338.15 K, 45000 kPa | 1052.28
338.15 K, 50000 kPa | 1056.13
338.15 K, 55000 kPa | 1059.87
338.15 K, 60000 kPa | 1063.48
338.15 K, 65000 kPa | 1066.99

— the NIST ThermoML archive (doi:10.1016/j.jct.2016.08.005)
